{"source": "patent US20250367182A1", "about": "“METHOD FOR INDUCING IN-SITU REGENERATION OF MAMMAL AND USE THEREOF” (INSTITUTE OF ZOOLOGY, CHINESE ACADEMY OF SCIENCES, priority 2022, published 2025)", "key": {"[1]": {"test_system": "2 mm diameter mouse ear hole", "assay": "2 mm ear hole trauma mouse model (ear hole closure)", "parameters": "species or system C57BL/6 mice", "settings": "in vivo"}, "[2]": {"test_system": "STING-TBK1-IRF3 signaling pathway / ISG genes in mouse primary fibroblasts and macrophages", "assay": "CHX-induced ISG gene expression in primary cells (RNA-seq, Ribo-seq, qPCR, immunofluorescence)", "type": "cell-based"}, "[3]": {"test_system": "4 mm diameter mouse ear hole", "parameters": "species or system mice", "settings": "in vivo"}, "scalded skin": {"test_system": "scalded skin", "assay": "mouse skin scald model", "type": "in vivo, mice", "settings": "CHX 20 mg/kg"}, "[4]": {"test_system": "bleomycin-induced lung fibrosis injury", "assay": "bleomycin-induced chronic injury model of lung fibrosis", "type": "in vivo, C57B1/6 mice"}, "[5]": {"test_system": "protein translation process"}, "[6]": {"settings": "CHX 20 mg/kg, lung function testing"}}, "note": "Entries after “also recorded” stand apart in the source; their conditions may differ. Like-named read-outs stand apart in the source and are kept apart here.", "data": [{"smiles": "COc1ccc(C[C@H]2NC[C@H](O)[C@H]2OC(C)=O)cc1", "note": "[Ani, Anisomycin]", "values": [{"measurement": "healing of the 2 mm ear hole", "setting": "[1]", "result": "significantly promote the healing of the ear hole"}]}, {"smiles": "C[C@@H]1C[C@@H]([C@H](O)CC2CC(=O)NC(=O)C2)C(=O)[C@@H](C)C1", "note": "[CHX, 4-((R)-2-((1S,3S,5S)-3,5-dimethyl-2-oxocyclohexyl)-2-hydroxyethyl)piperidine-2,6-dione]", "values": [{"measurement": "expression of classical ISGs (Mx2, Ifit1, Cxcl10, Ifih1), qPCR", "setting": "[2]; CHX, fibroblasts and macrophages", "result": "upregulate the expression of classical ISGs"}, {"measurement": "STING-TBK1-IRF3 signaling (perinuclear STING, nuclear IRF3), immunofluorescence", "setting": "[2]; CHX, in vitro", "result": "activated ISGs by activating the STING-TBK1-IRF3 signaling pathway"}, {"measurement": "number of genes upregulated at both transcriptional and translational levels in both cell types", "setting": "[2]; CHX, mouse primary fibroblasts and macrophages, RNA-seq and Ribo-seq", "result": 32, "unit": "genes"}, {"measurement": "wound area of 4 mm ear hole", "setting": "[3]", "result": "significantly reduced"}, {"measurement": "HE staining of auricle tissue", "setting": "[1]", "result": "healed the tissue after damage and formed granulation tissue"}, {"measurement": "HE staining of auricle tissue: healing of trauma", "setting": "[1]", "result": "completely healed"}, {"measurement": "HE staining of wound site: regenerated tissues", "setting": "[1]", "result": "regeneration of tissues and tissue derivatives such as hair follicles, glands, cartilage, muscles and blood vessels"}, {"measurement": "KI67 immunohistochemical staining of auricle tissue (basal cells)", "setting": "[1]", "result": "expressed a large amount of KI67"}, {"measurement": "closure of 2 mm ear hole wound", "setting": "[1]", "result": "completely closed"}, {"measurement": "dose dependence of promotion of 2 mm ear hole healing", "setting": "[1]", "result": "dose-dependent"}, {"measurement": "healing condition of 2 mm ear hole (photograph)", "setting": "[1]", "result": "completely closed"}, {"measurement": "healing effect compared with Ani", "setting": "[1]", "result": "better"}, {"measurement": "healing effect with different administration manners", "setting": "[1]", "result": "healing effects were produced; also recorded: different manners of administration had the effect of promoting regeneration"}, {"measurement": "healing of the 2 mm ear hole", "setting": "[1]", "result": "significantly promote the healing of the ear hole"}, {"measurement": "closure of 2 mm diameter ear holes", "setting": "[1]; ip", "result": "promoted the closure"}, {"measurement": "collagen accumulation (Sirius red staining)", "setting": "scalded skin", "result": "reduced collagen accumulation"}, {"measurement": "skin tissue regeneration (histochemical staining)", "setting": "scalded skin", "result": "significantly promoted the regeneration of epidermis, hair follicles, glands, dermis, and blood vessels"}, {"measurement": "scar area", "setting": "scalded skin; after 40 days of administration", "result": "significantly reduced scar area"}, {"measurement": "survival rate", "setting": "[4]; CHX 20 mg/kg i.p. every two days from 2 days after surgery, 18th day of treatment", "result": 75, "unit": "%"}, {"measurement": "body weight loss", "setting": "[4]; CHX 20 mg/kg, ***P<0.001", "result": "significantly inhibited the body weight loss"}, {"measurement": "lung fibrosis (HE staining and Sirius red staining)", "setting": "[4]; CHX 20 mg/kg, after 14 days of treatment", "result": "significantly inhibited"}, {"measurement": "body weight", "setting": "[4]; CHX 20 mg/kg, after 15 days", "result": "~85", "unit": "%"}, {"measurement": "respiratory rate", "setting": "[4]; [6]", "result": "significantly maintained normal"}, {"measurement": "tidal volume", "setting": "[4]; [6]", "result": "significantly maintained normal"}, {"measurement": "tissue integrity and fibrosis (HE staining)", "setting": "[4]; CHX administration started 9 days after bleomycin injury (more severe model)", "result": "significantly restored tissue integrity and reduced fibrosis"}, {"measurement": "development-related genes (blood vessels, circulatory system), RNA-Seq", "setting": "[4]; CHX-treated group", "result": "upregulated"}, {"measurement": "genes related to respiratory system development, RNA-Seq", "setting": "[4]; CHX-treated group", "result": "promoted the upregulation"}, {"measurement": "fibrosis-related genes (extracellular matrix, collagen), RNA-Seq", "setting": "[4]; CHX-treated group vs control after injury", "result": "significantly downregulate"}]}, {"smiles": "Cc1nn(CC(F)(F)F)cc1Nc1ncc(Br)c(NCc2ccc(S(N)(=O)=O)cc2)n1", "note": "[GSK8612]", "values": [{"measurement": "expression of ISG genes induced by CHX", "setting": "[2]; GSK8612 5 μM, CHX 1 μg/ml", "result": "significantly inhibited the expression of ISG genes"}, {"measurement": "CHX-induced ear hole regeneration", "setting": "[1]", "result": "significantly inhibited"}]}, {"smiles": "O=C1N[C@@H]2C(=C[C@H](O)[C@@H](O)[C@H]2O)c2cc3c(c(O)c21)OCO3", "note": "[Narciclasine]", "values": [{"measurement": "healing of 2 mm ear holes", "setting": "[1]", "result": "significantly promote the healing of 2 mm ear holes"}, {"measurement": "regenerated tissues in closed ear holes (histochemical and Masson staining)", "setting": "[1]", "result": "could regenerate tissues such as hair follicles, glands, cartilage and muscles, and tissue derivatives"}, {"measurement": "inhibition of protein translation (Puromycin incorporation)", "setting": "[5]; CHX as control", "result": "could significantly inhibit the protein translation process"}]}, {"smiles": "O=C1N[C@H]2[C@H](O)[C@H](O)[C@@H](O)[C@H](O)[C@@H]2c2cc3c(c(O)c21)OCO3", "note": "[Pancratistatin]", "values": [{"measurement": "closure of 2 mm ear hole", "setting": "[1]", "result": "completely closed"}, {"measurement": "nature of the closure (HE and Masson staining)", "setting": "[1]", "result": "identified as a regeneration event"}, {"measurement": "inhibition of protein translation (Puromycin incorporation)", "setting": "[5]", "result": "could significantly inhibit the protein translation process"}]}]}
